System: rat collagen-induced arthritis model
Assay: Edema suppressing effect in both hindlimbs in rat collagen-induced arthritis model (Edema Index)
Type: in vivo, rat (female Lewis, LEW/Crj)
Set-up: Edema Index: unit not given here
Details: sole administration; for Relative index: Edema Index relative to control group; for Relative index / Decrease rate (%) / Edema Index: oral; for Decrease rate (%): of Edema Index vs control group; for Edema Index: mean ± SE
Experimental: Female Lewis rats (LEW/Crj) (obtained from Charles River Laboratories Japan, Inc.) were used as test animals.
This Pre value was used as an index to divide the rats into groups by one-parameter-based block randomization, so that the values in the respective groups averaged out.
The collagen emulsion for sensitization used to induce arthritis in rats was prepared by homogenizing 0.3% Type II collagen liquid (manufactured by Collagen Research Center), Adjuvant Peptide (manufactured by Peptide Institute, Inc.) and Adjuvant Incomplete Freund (manufactured by DIFCO), using a Handy Micro Homogenizer (manufactured by Microtec Nition) under ice-cooling. The collagen emulsion thus prepared was intracutaneously administered at 10 sites in the back of each rat at a dose of 0.1 mL/site, to perform initial sensitization of the rat. Seven days after initial sensitization, 0.12 mL of the same collagen emulsion was intracutaneously administered to the tail head of each rat, to perform booster sensitization.
Drug administration was conducted from the day after the initial sensitization through 18 days thereafter. Drug A and Drugs B-1, B-2 and B-4 were all orally administered two times a day, in the morning (9:00 to 11:00 AM) and in the evening (15:30 to 17:30 PM). Drug B-3 was orally administered once a day, around noon (11:30 AM to 13:30 PM).
14 Days and 18 days after the initial sensitization, respectively, the hindlimbs volume was measured again for each rat, and the difference between each of the values and the Pre value was determined to calculate the edema volume for both hindlimbs. The sum of the edema volumes for both hindlimbs measured 14 days and 18 days after the initial sensitization was calculated as the Edema Index, and this was taken as an index for the effect of the drug.
The Edema Index is represented by an average value±standard error for 8 rats in each group. Also, the decrease rate is represented by the formula: ((X−Y)/X)×100 (wherein X: average value of Edema Index for the control group, Y: average value of Edema Index for each group).

Row | Compound | Relative index (1 mg/kg, two times a day) | Decrease rate (%) (1 mg/kg, two times a day) | Edema Index (1 mg/kg, two times a day) | Relative index (0.2 mg/kg, once a day) | Decrease rate (%) (0.2 mg/kg, once a day) | Edema Index (0.2 mg/kg, once a day) | Relative index (10 mg/kg, two times a day) | Decrease rate (%) (10 mg/kg, two times a day) | Edema Index (10 mg/kg, two times a day) | Relative index (3 mg/kg, two times a day) | Decrease rate (%) (3 mg/kg, two times a day) | Decrease rate of Edema Index vs control group (%) (3 mg/kg) | Edema Index (3 mg/kg, two times a day, through 18 days after initial sensitization, sum of edema volumes of both hindlimbs at days 14 and 18) | Decrease rate of Edema Index vs control group (%) (10 mg/kg)
1 | O=C(O)Cc1ccccc1Nc1c(Cl)cccc1Cl [Drug B-1, diclofenac sodium] | 0.33 | 67% | 1.20 ± 0.26 |  |  |  |  |  |  |  |  |  |  | 
2 | Cc1cnc(NC(=O)C2=C(O)c3ccccc3S(=O)(=O)N2C)s1 [Drug B-3, meloxicam] |  |  |  | 0.58 | 42% | 2.04 ± 0.10 |  |  |  |  |  |  |  | 
3 | CSc1ccc(-c2nn(Cc3ccccc3)c(=O)cc2-c2ccc(Cl)cc2)cc1 [Drug A, 2-benzyl-5-(4-chlorophenyl)-6-[4-(methylthio)phenyl]-2H-pyridazin-3-one] |  |  |  |  |  |  | 0.81 | 19% | 2.93 ± 0.22 |  |  |  |  | 
4 | Cc1ccc(-c2cc(C(F)(F)F)nn2-c2ccc(S(N)(=O)=O)cc2)cc1 [Drug B-4, celecoxib] | 0.70 | 30% | 3.41 ± 0.16 |  |  |  | 0.46 | 54% | 1.86 ± 0.19 | 0.61 | 39% | 39% | 2.46 ± 0.22 | 54%
